From US9963445B2, “Chemical compounds” (SYNGENTA PARTICIPATIONS AG, priority 2013, dated 2018)

Tests used:
Type in all cases: in vivo
[1] = system: Alopecurus myosuroides; test: Pre-emergence herbicidal activity, glasshouse pot test; details: pre-emergence spray, rate 1000 g/ha, evaluated after 13 days, scale 0-5
Procedure: (§1) Seeds of a variety of test species were sown in standard soil in pots. After cultivation for one day (pre-emergence) under controlled conditions in a glasshouse (at 24/16° C., day/night; 14 hours light; 65% humidity), the plants were sprayed with an aqueous spray solution derived from the formulation of the technical active ingredient in acetone/water (50:50) solution containing 0.5% Tween 20 (polyoxyethelyene sorbitan monolaurate, CAS RN 9005-64-5). The test plants were then grown in a glasshouse under controlled conditions (at 24/16° C., day/night; 14 hours light; 65% humidity) and watered twice daily. After 13 days, the test was evaluated (5=total damage to plant; 0=no damage to plant).
(§2) ABUTH=Abutilon theophrasti; SOLNI=Solanum nigrum; AMARE=Amaranthus retroflexus; SETFA=Setaria faberi; ALOMY=Alopecurus myosuroides; ECHCG=Echinochloa crus-galli, ZEAMX=zea mays.

[2] = system: Amaranthus retroflexus; test: as above; details: pre-emergence spray, rate 1000 g/ha, evaluated after 13 days, scale 0-5
Procedure: as §1, §2

[3] = system: Echinochloa crus-galli; test: as above; details: pre-emergence spray, rate 1000 g/ha, evaluated after 13 days, scale 0-5
Procedure: as §1, §2

[4] = system: Setaria faberi; test: as above; details: pre-emergence spray, rate 1000 g/ha, evaluated after 13 days, scale 0-5
Procedure: as §1, §2

[5] = system: Abutilon theophrasti; test: as above; details: pre-emergence spray, rate 1000 g/ha, evaluated after 13 days, scale 0-5
Procedure: as §1, §2

[6] = system: zea mays; test: as above; details: pre-emergence spray, rate 1000 g/ha, evaluated after 13 days, scale 0-5
Procedure: as §1, §2

[7] = system: Alopecurus myosuroides; test: Post-emergence herbicidal activity, glasshouse pot test; parameters: key: 0 = no damage to plant, 5 = total damage to plant; details: Application post-emergence, rate 1000 g/ha, evaluated after 13 days
Procedure: (§3) Seeds of a variety of test species were sown in standard soil in pots. After 8 days cultivation (post-emergence) under controlled conditions in a glasshouse (at 24/16° C., day/night; 14 hours light; 65% humidity), the plants were sprayed with an aqueous spray solution derived from the formulation of the technical active ingredient in acetone/water (50:50) solution containing 0.5% Tween 20 (polyoxyethelyene sorbitan monolaurate, CAS RN 9005-64-5). The test plants were then grown in a glasshouse under controlled conditions (at 24/16° C., day/night; 14 hours light; 65% humidity) and watered twice daily. After 13 days, the test was evaluated (5=total damage to plant; 0=no damage to plant).
as §2

[8] = system: Amaranthus retroflexus; test: as above; parameters: key: 0 = no damage to plant, 5 = total damage to plant; details: Application post-emergence, rate 1000 g/ha, evaluated after 13 days
Procedure: as §3, §2

[9] = system: Echinochloa crus-galli; test: as above; parameters: key: 0 = no damage to plant, 5 = total damage to plant; details: Application post-emergence, rate 1000 g/ha, evaluated after 13 days
Procedure: as §3, §2

[10] = system: Setaria faberi; test: as above; parameters: key: 0 = no damage to plant, 5 = total damage to plant; details: Application post-emergence, rate 1000 g/ha, evaluated after 13 days
Procedure: as §3, §2

[11] = system: Abutilon theophrasti; test: as above; parameters: key: 0 = no damage to plant, 5 = total damage to plant; details: Application post-emergence, rate 1000 g/ha, evaluated after 13 days
Procedure: as §3, §2

[12] = system: zea mays; test: as above; parameters: key: 0 = no damage to plant, 5 = total damage to plant; details: Application post-emergence, rate 1000 g/ha, evaluated after 13 days
Procedure: as §3, §2

SMILES	ALOMY damage score, application pre-emergence [1]	AMARE damage score, application pre-emergence [2]	ECHCG damage score, application pre-emergence [3]	SETFA damage score, application pre-emergence [4]	ABUTH damage score, application pre-emergence [5]	ZEAMX damage score, application pre-emergence [6]	ALOMY herbicidal damage score [7]	AMARE herbicidal damage score [8]	ECHCG herbicidal damage score [9]	SETFA herbicidal damage score [10]	ABUTH herbicidal damage score [11]	ZEAMX herbicidal damage score [12]
COC1=C(C)C(O)N(c2cc(C(C)C)c(C(=O)NC(C)(C)C#N)cn2)C1=O (stereo not drawn) [AI31]	3	5	3	2	2	2	4	5	5	5	5	2
CC1=C(Cl)C(=O)N(c2ccc(C(F)(F)F)nn2)C1O (stereo not drawn) [BF7]	2	4	3	4	4	1	2	2	3	4	2	2
CC1=C(Cl)C(=O)N(c2ccc(C#N)nn2)C1O (stereo not drawn) [BF14]	1	4	2	0	5	0	2	2	2	3	1	1
CC1=C(Cl)C(=O)N(c2nccc(C(F)(F)F)n2)C1O (stereo not drawn) [DF1]	4	5	4	4	4	2	4	5	5	5	5	4
CC1=C(Cl)C(=O)N(c2cc(C(C)(C)C)ccn2)C1O (stereo not drawn) [AF36]	4	5	5	5	5	2	4	3	5	5	5	4
COC1=C(OC)C(O)N(c2cc(C(F)(F)F)ncn2)C1=O (stereo not drawn) [CK4]	4	4	4	5	5	3	5	3	5	5	5	4
CC1=C(Cl)C(=O)N(c2cc(C(C)(C)C)ncn2)C1O (stereo not drawn) [CF2]	4	5	4	4	5	3	5	5	5	5	5	5
